Measured values from ChEMBL document CHEMBL3259748, “Synthesis, characterization, and PK/PD studies of a series of spirocyclic pyranochromene BACE1 inhibitors” (Bioorg Med Chem Lett, 2014).

Tests used:
MDR1 (human) = test: Apparent permeability of the compound across pig LLC-PK1 cells expressing human MDR1; assay type: ADME, cell-based, Sus scrofa
[1] = Clearance in human liver microsomes at 1 uM after 20 mins in presence of NADPH; assay type: ADME

Compound | Papp (MDR1 (human)) | CLhep predicted at 1 µM [1]
NC1=N[C@@]2(CO1)c1cc(-c3cncc(F)c3)ccc1O[C@@H]1COCC[C@H]12 | 15 ×10⁻⁶ cm/s | 9 mL/min/kg
C[C@]12COCC[C@@H]1[C@]1(COC(N)=N1)c1cc(-c3cncc(Cl)c3)ccc1O2 (racemic) | 10 ×10⁻⁶ cm/s | 15 mL/min/kg
NC1=N[C@@]2(CO1)c1cc(-c3cncc(Cl)c3)ccc1O[C@H]1COCC[C@@H]12 | 4.7 ×10⁻⁶ cm/s | 15 mL/min/kg
NC1=N[C@@]2(CO1)c1cc(-c3cncc(Cl)c3)ccc1O[C@@H]1COCC[C@H]12 | 14 ×10⁻⁶ cm/s | 13 mL/min/kg
NC1=N[C@@]2(CO1)c1cc(-c3cc(F)cc(Cl)c3)ccc1O[C@@H]1COCC[C@H]12 | 11 ×10⁻⁶ cm/s | 10 mL/min/kg
N#Cc1cccc(-c2ccc3c(c2)[C@@]2(COC(N)=N2)[C@@H]2CCOC[C@H]2O3)c1 | 11 ×10⁻⁶ cm/s | 8 mL/min/kg
NC1=N[C@@]2(CO1)c1cc(-c3cccnc3F)ccc1O[C@@H]1COCC[C@H]12 | 10 ×10⁻⁶ cm/s | 6 mL/min/kg
